Measurements reported in patent US11884675B2, “Heterocyclic compounds as triggering receptor expressed on myeloid cells 2 agonists and methods of use” (AMGEN INC., priority 2020, dated 2024).

Biological target: hTREM2 (Homo sapiens, UniProt Q9NZC2)
Assay: TREM2 activity by cellular Syk phosphorylation (AlphaScreen/AlphaLISA) in TREM2/DAP12-HEK cells, used for Examples 1-305
Type: cell-based
Set-up: expressed in transfected cells
Details: HEK293 Cells
How it was run: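 Phospho-Syk (Tyr525/526) over total Syk quantified by AlphaScreen in lysates of cloned TREM2/DAP12-overexpressing HEK293 cells after 45 min compound treatment at room temperature, 1% final DMSO. Values expressed relative to 100 nM anti-TREM2 antibody (positive) and isotype IgG (negative) controls; curves fitted with 4-parameter logistic model.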

hTREM2, sequence (Q9NZC2 19-230): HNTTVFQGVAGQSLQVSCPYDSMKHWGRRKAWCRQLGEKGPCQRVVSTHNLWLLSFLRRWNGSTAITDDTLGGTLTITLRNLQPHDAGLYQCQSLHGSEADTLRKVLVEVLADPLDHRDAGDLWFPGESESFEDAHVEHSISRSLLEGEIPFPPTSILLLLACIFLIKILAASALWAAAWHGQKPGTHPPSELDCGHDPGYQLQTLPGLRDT
hTREM2, sequence (O43914 22-113 partner): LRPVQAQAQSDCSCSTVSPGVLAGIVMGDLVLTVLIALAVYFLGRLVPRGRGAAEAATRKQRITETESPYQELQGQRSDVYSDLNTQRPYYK

Row | SMILES | EC50 [nM] | hTREM2 Emax
1 | Cc1cc([C@H]2CN(c3nc(-c4ccc(F)cc4F)c4cc(C)c(C)nc4n3)CCO2)ccn1 [Example 168, 4-(2,4-difluorophenyl)-6,7-dimethyl-2-((2S)-2-(2-methyl-4-pyridinyl)-4-morpholinyl)pyrido[2,3-d] pyrimidine] | ≤ 50 | ++++ (Emax>250)
2 | Cc1nc2nc(N3CCO[C@@H](c4cnn(C5CC5)c4)C3)nc([C@H]3C[C@@H](C(F)F)C3)c2nc1C [Example 47, 2-((2S)-2-(1-cyclopropyl-1H-pyrazol-4-yl)-4-morpholinyl)-4-(cis-3-(difluoromethyl)cyclobutyl)-6,7-dimethylpteridine] | ≤ 50 | + (Emax>45 and ≤100)
3 | Cc1ccc(-c2nc([C@H]3CCO[C@H](c4ccnc(C)c4)C3)nc3nc(C)c(C)nc23)c(F)c1 [Example 286, 4-(2-fluoro-4-methylphenyl)-6,7-dimethyl-2-((2S,4S)-2-(2-methylpyridin-4-yl)tetrahydro-2H-pyran-4-yl)pteridine] | ≤ 50 | +++ (Emax>150 and ≤250)
4 | Cc1cnc2c(-c3ccc(Cl)cc3F)nc([C@@H]3CCO[C@H](c4cnn(C5CC5)c4)C3)nc2n1 [Example 270, 4-(4-chloro-2-fluorophenyl)-2-((2S,4R)-2-(1-cyclopropyl-1H-pyrazol-4-yl)tetrahydro-2H-pyran-4-yl)-7-methylpteridine] | 500 to 3000 | +++ (Emax>150 and ≤250)
5 | Cc1cnc2c(-c3ccc(Cl)cc3F)nc([C@H]3CCO[C@H](c4cnn(C)c4)C3)cc2n1 [Example 246, 5-(4-chloro-2-fluorophenyl)-2-methyl-7-((2S,4S)-2-(1-methyl-1H-pyrazol-4-yl)tetrahydro-2H-pyran-4-yl)pyrido[3,4-b] pyrazine] | 3000 to 100000 | +++ (Emax>150 and ≤250)
6 | Cc1ccc2c(-c3ccc(Cl)cc3F)nc([C@@H]3CCO[C@H](c4cnn(C5CC5)c4)C3)nc2n1 [Example 260, 4-(4-chloro-2-fluorophenyl)-2-((2S,4R)-2-(1-cyclopropyl-1H-pyrazol-4-yl)tetrahydro-2H-pyran-4-yl)-7-methylpyrido [2,3-d]pyrimidine] | 500 to 3000 | +++ (Emax>150 and ≤250)
7 | Cc1nc2nc([C@@H]3CCO[C@H](c4cnn(C)c4)C3)nc(C3CCC(F)(F)CC3)c2nc1C (single isomer, unassigned) [Example 175] | 500 to 3000 | ++ (Emax>100 and ≤150)
8 | Cc1cc([C@@H]2C[C@H](c3nc(-c4ccc(F)cc4F)c4nc(C)c(C)nc4n3)CCO2)ccn1 [Example 252, 4-(2,4-difluorophenyl)-6,7-dimethyl-2-((2S,4R)-2-(2-methylpyridin-4-yl)tetrahydro-2H-pyran-4-yl)pteridine] | ≤ 50 | +++ (Emax>150 and ≤250)
9 | Cc1cnc2c(-c3ccc(Cl)cc3F)nc(N3CCOC(C4CCOC4)C3)nc2n1 (stereo not drawn) [Example 5, 4-(4-chloro-2-fluorophenyl)-7-methyl-2-(2-(tetrahydro-3-furanyl)-4-morpholinyl)pteridine] | 500 to 3000 | +++ (Emax>150 and ≤250)
10 | Cc1nc2nc(N3CCO[C@@H](c4cnn(C)c4)C3)nc(C34CC(C(F)(F)F)(C3)C4)c2nc1C [Example 63, 6,7-dimethyl-2-((2S)-2-(1-methyl-1H-pyrazol-4-yl)-4-morpholinyl)-4-(3-(trifluoromethyl)bicyclo[1.1.1]pentan-1-yl)pteridine] | ≤ 50 | +++ (Emax>150 and ≤250)
11 | CCn1cc([C@H]2CN(c3cc4nc(C)ccc4c(-c4ccc(Cl)cc4F)n3)CCO2)cn1 [Example 239, (S)-4-(5-(4-chloro-2-fluorophenyl)-2-methyl-1,6-naphthyridin-7-yl)-2-(1-ethyl-1H-pyrazol-4-yl)morpholine] | 3000 to 100000 | +++ (Emax>150 and ≤250)
12 | Cc1ccc(-c2nc([C@@H]3CCO[C@H](c4cnn(C)c4)C3)nc3nc(C)c(C)nc23)c(F)c1 (single isomer, unassigned) [Example 184] | 500 to 3000 | +++ (Emax>150 and ≤250)
